Assay results: US20150224089A1, “COMBINATIONS OF IKKi/TBK1 INHIBITORS WITH BETA ADRENERGIC AGONISTS OR SYMPATHETIC NERVOUS SYSTEM ACTIVATORS” (THE REGENTS OF THE UNIVERSITY OF MICHIGAN, priority 2014, published 2015)
Entries after “also recorded” stand apart in the source; their conditions may differ.

Tests used:
3T3-L1 adipocytes [1] = test: cAMP levels in 3T3-L1 adipocytes; format: cell-based
Protocol: (§1) (A) Glycerol release from 3T3-L1 adipocytes treated with or without different concentrations of TNFα as indicated for 24 hr followed by treatment with or without 10 μM ISO or 50 μM FSK. (B) cAMP levels from 3T3-L1 adipocytes treated with or without 100 ng/ml TNFα for 24 hr followed by treatment with or without 10 μM ISO or 50 μM FSK in the presence or absence of pretreatment of 50 μM Amlexanox (Am). (C) cAMP levels from 3T3-L1 adipocytes treated with or without 100 ng/ml TNFα for 24 hr followed by treatment with or without 50 μM FSK in the presence or absence of pretreatment of 1 μM CAY10576 (CAY). (D) Immunoblots of whole cell lysates from 3T3-L1 adipocytes treated with or without different concentrations of TNFα as same as FIG. 2A for 24 hr followed by treatment with or without 10 μM ISO or 50 μM FSK. Results were replicated in multiple experiments. ‘[’ indicates total HSL. ‘n.s.’ represents non-specific band. Arrow indicates CGI-58. (E) Immunoblots of whole cell lysates from 3T3-L1 adipocytes treated with or without 50 ng/ml TNFα or 100 μg/ml poly (I:C) for 24 hr followed by treatment with or without 10 μM ISO for 15 min in the presence or absence of pretreatment with increasing concentrations (0, 10, 50, and 200 μM) of amlexanox for 30 min.
(A) cAMP levels from 3T3-L1 adipocytes expressing empty vector, Flag-IKKε, or Flag-TBK1 treated with or without 50 μM FSK, 250 μM IBMX, or together for 15 min. (B) cAMP levels from 3T3-L1 adipocytes expressing empty vector, Flag-IKKε, or Flag-TBK1 treated with or without 10 μM ISO or 50 μM FSK together with or without 10 μM Zardaverine (Zarda) for 15 min. (C) 32P phospho-image of in vitro kinase reaction using either immunoprecipitated HA-PDE3B from HEK293T cells or 1 μg MBP (myelin basic protein) as a substrate with recombinant kinases as indicated. (D) Immunoblots of immunoprecipitation with anti-HA antibodies followed by treatment with or without CIP (top panel) and whole cell lysates (bottom panel) from Cos-1 cells co-expressing HA-PDE3B with Flag-IKKε/TBK1 or Flag-IKKε/TBK1 K38A. D.E. stands for dark exposure and L.E. stands for light exposure. (E) Immunoblots of GST-14-3-3 pulldown from HEK293T cells co-expressing HA-PDE3B with Flag-TBK1 or Flag-TBK1 K38A.
Obesity is accompanied by infiltration of proinflammatory macrophages into adipose tissue; these cells secrete inflammatory cytokines, such as TNFα, which generate insulin resistance by stimulating catabolic pathways (Hotamisligil, 2006; Lumeng et al., 2007; Ye and Keller, 2010; Ouchi et al., 2011; herein incorporated by reference in their entireties). Although TNFα is known to increase lipolysis in adipocytes (Zhang et al., 2002; Souza et al., 2003; Green et al., 2004; Plomgaard et al., 2008; herein incorporated by reference in their entireties), there is also evidence of a counterinflammatory response in obesity that may serve to repress energy expenditure (Gregor and Hotamisligil, 2011; Saltiel, 2012; Calay and Hotamisligil, 2013; Reilly et al., 2013; herein incorporated by reference in their entireties). Experiments were conducted during development of embodiments of the present invention using TNFα to model the inflammatory milieu of obese adipose tissue in cell culture to determine whether the cytokine might also regulate β-adrenergic signaling in this context. While short-term treatment with TNFα augmented the increase in cAMP produced by forskolin treatment, this effect declined after 12 hr. […] Thus, the catabolic effects of the proinflammatory cytokine TNFα in adipocytes are transient and followed by an inhibitory phase.
Treatment of 3T3-L1 adipocytes with TNFα for 24 hr induced the expression of IKKε and increased TBK1 phosphorylation at the active site in a manner that was dependent on the activity of IKKβ and the NFκB pathway (Reilly et al., 2013; herein incorporated by reference in its entirety). […]

3T3-L1 adipocytes [2] = test: Immunoblots of β-adrenergic/PKA signaling (HSL, perilipin, PKA substrate, p38 phosphorylation) in 3T3-L1 adipocytes; format: cell-based
Protocol: as §1, with “Results were replicated in multiple experiments. ‘[’ indicates total HSL. ‘n.s.’ represents non-specific band.” left out
Experiments were conducted during development of embodiments of the present invention to determine whether the repression of β-adrenergic sensitivity produced by longer-term treatment with TNFα is due to increased activity of the noncanonical IKKs.

Row | Compound | rescue of TNFα-decreased isoproterenol- and forskolin-stimulated cAMP production (3T3-L1 adipocytes [1]; preincubation with 50 μM amlexanox, 100 ng/ml TNFα 24 hr, 10 μM ISO or 50 μM FSK) | effect on TNFα inhibition of isoproterenol-stimulated β-adrenergic signaling (phospho-PKA substrate, phospho-HSL, phospho-perilipin) (3T3-L1 adipocytes [2]; amlexanox pretreatment 0, 10, 50, 200 μM for 30 min, 50 ng/ml TNFα 24 hr, 10 μM ISO 15 min) | phosphorylation of p38 in response to isoproterenol (3T3-L1 adipocytes [2]; amlexanox pretreatment 0, 10, 50, 200 μM, dose-dependent) | effect on Poly (I:C) inhibition of sensitivity to isoproterenol stimulation (3T3-L1 adipocytes [2]; amlexanox pretreatment, 100 μg/ml poly (I:C) 24 hr, less than with TNFα) | isoproterenol- and forskolin-stimulated cAMP production (3T3-L1 adipocytes [1]; TNFα for 24 hr (100 ng/ml), 10 μM ISO or 50 μM FSK) | increase in cAMP produced by forskolin treatment (3T3-L1 adipocytes [1]; short-term treatment with TNFα) | isoproterenol-stimulated β-adrenergic signaling (phosphorylation of HSL, perilipin, PKA substrate motif proteins) (3T3-L1 adipocytes [2]; TNFα for 24 hr, 10 μM ISO)
1 | CC(C)c1ccc2oc3nc(N)c(C(=O)O)cc3c(=O)c2c1 [amlexanox, 2-amino-7-isopropyl-1-azaxanthone-3-carboxylic acid; 2-amino-7-isopropyl-5-oxo-5H-chromeno[2,3-b]pyridine-3-carboxylic acid] | largely rescued | blocked the inhibitory effect of TNFα | dramatically augmented | partially restored | – | – | –
2 | TNFα | – | – | – | – | inhibited the production of the second messenger; also recorded: decreased isoproterenol- and forskolin-stimulated cAMP production | augmented | decreased
